PubChem BioAssay AID256 (DTP/NCI, 2004)
Several values for one entry are separate records, joined by “and”; a condition that tells them apart may be missing. Equal values may be shown once. Toxic doses and inconclusive results are not listed. The calls were made as follows: active = survival T/C of 150% or more; inactive = T/C below 125% in these data.

Tested on: CD2F1 mice, L1210 leukemia ip, survival T/C
Test: NCI In Vivo Anticancer Drug Screen. Data for tumor model L1210 Leukemia (intraperitoneal) in CD2F1 (CDF1) mice
Conditions: higher = longer survival
Summary of the method: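 In this screen, transplantable tumors were grown in mice given either the compound or its vehicle. Results were expressed as the treated measurement relative to the control measurement.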

[1] = endpoint: mean survival time, dose: 100.0 mg/kg/injection, schedule: Q04DX003 (ip), vehicle: saline
[2] = endpoint: mean survival time, dose: 200.0 mg/kg/injection, schedule: Q04DX003 (ip), vehicle: saline
[3] = endpoint: mean survival time, dose: 400.0 mg/kg/injection, schedule: Q04DX003 (ip), vehicle: saline
[4] = endpoint: mean survival time, dose: 100.0 mg/kg/injection, schedule: Q01DX009 (ip), vehicle: saline with Tween-80
[5] = endpoint: mean survival time, dose: 200.0 mg/kg/injection, schedule: Q01DX009 (ip), vehicle: saline with Tween-80
[6] = endpoint: mean survival time, dose: 400.0 mg/kg/injection, schedule: Q01DX009 (ip), vehicle: saline with Tween-80
[7] = endpoint: mean survival time, dose: 100.0 mg/kg/injection, schedule: Q04DX003 (ip), vehicle: saline with Tween-80
[8] = endpoint: mean survival time, dose: 200.0 mg/kg/injection, schedule: Q04DX003 (ip), vehicle: saline with Tween-80
[9] = endpoint: mean survival time, dose: 400.0 mg/kg/injection, schedule: Q04DX003 (ip), vehicle: saline with Tween-80
[10] = endpoint: mean survival time, dose: 50.0 mg/kg/injection, schedule: Q04DX002 (ip), vehicle: saline with Tween-80
[11] = endpoint: mean survival time, dose: 100.0 mg/kg/injection, schedule: Q04DX002 (ip), vehicle: saline with Tween-80
[12] = endpoint: mean survival time, dose: 200.0 mg/kg/injection, schedule: Q04DX002 (ip), vehicle: saline with Tween-80
[13] = endpoint: mean survival time, dose: 400.0 mg/kg/injection, schedule: Q04DX002 (ip), vehicle: saline with Tween-80
[14] = endpoint: mean survival time, dose: 25.0 mg/kg/injection, schedule: Q04DX002 (ip), vehicle: saline with Tween-80

Measured: T/C

OC1CCCC2OC12 (centres undefined)
inactive: [1] 93 % of control | [2] 96 % of control | [3] 93 % of control

c1ccc2n[se]nc2c1
inactive: endpoint: mean survival time, dose: 3.13 mg/kg/injection, schedule: Q01DX009 (ip), vehicle: saline 98 % of control | endpoint: mean survival time, dose: 3.13 mg/kg/injection, schedule: Q04DX003 (ip), vehicle: saline 97 % of control | endpoint: mean survival time, dose: 6.25 mg/kg/injection, schedule: Q01DX009 (ip), vehicle: saline 94 % of control | endpoint: mean survival time, dose: 6.25 mg/kg/injection, schedule: Q04DX003 (ip), vehicle: saline 101 % of control | endpoint: mean survival time, dose: 12.5 mg/kg/injection, schedule: Q01DX009 (ip), vehicle: saline 96 % of control | endpoint: mean survival time, dose: 12.5 mg/kg/injection, schedule: Q04DX003 (ip), vehicle: saline 103 % of control

Oc1cc2ccccc2c(-c2c(O)c(O)cc3ccccc23)c1O
inactive: endpoint: mean survival time, dose: 12.5 mg/kg/injection, schedule: Q01DX009 (ip), vehicle: saline with Tween-80 103 % of control | endpoint: mean survival time, dose: 25.0 mg/kg/injection, schedule: Q01DX009 (ip), vehicle: saline with Tween-80 100 % of control and 103 % of control | endpoint: mean survival time, dose: 50.0 mg/kg/injection, schedule: Q01DX009 (ip), vehicle: saline with Tween-80 103 % of control and 105 % of control | [4] 100 % of control and 109 % of control | [5] 96 % of control

O=C1NC(=O)NC(C(=O)O)N1
inactive: endpoint: mean survival time, dose: 1.56 mg/kg/injection, schedule: Q01DX009 (ip), vehicle: DMSO 92 % of control | endpoint: mean survival time, dose: 3.12 mg/kg/injection, schedule: Q01DX009 (ip), vehicle: DMSO 96 % of control | endpoint: mean survival time, dose: 6.25 mg/kg/injection, schedule: Q01DX009 (ip), vehicle: DMSO 96 % of control | endpoint: mean survival time, dose: 12.5 mg/kg/injection, schedule: Q01DX009 (ip), vehicle: DMSO 94 % of control and 98 % of control | endpoint: mean survival time, dose: 25.0 mg/kg/injection, schedule: Q01DX009 (ip), vehicle: DMSO 97 % of control and 98 % of control and 101 % of control | endpoint: mean survival time, dose: 50.0 mg/kg/injection, schedule: Q01DX009 (ip), vehicle: DMSO 97 % of control and 100 % of control | endpoint: mean survival time, dose: 100.0 mg/kg/injection, schedule: Q01DX009 (ip), vehicle: DMSO 94 % of control and 97 % of control | endpoint: mean survival time, dose: 200.0 mg/kg/injection, schedule: Q01DX009 (ip), vehicle: DMSO 102 % of control | endpoint: mean survival time, dose: 400.0 mg/kg/injection, schedule: Q01DX009 (ip), vehicle: DMSO 98 % of control

CC(C)OC(N)=O
inactive: endpoint: mean survival time, dose: 100.0 mg/kg/injection, schedule: Q01DX001 (ip), vehicle: saline 94 % of control | [4] 106 % of control | [1] 97 % of control | endpoint: mean survival time, dose: 200.0 mg/kg/injection, schedule: Q01DX001 (ip), vehicle: saline 102 % of control | [5] 103 % of control | [2] 101 % of control | endpoint: mean survival time, dose: 400.0 mg/kg/injection, schedule: Q01DX001 (ip), vehicle: saline 100 % of control | [6] 105 % of control | [3] 100 % of control

CCN(CC)C(=O)Cc1ccc2c3c(cccc13)CC2
inactive: [7] 98 % of control | [8] 98 % of control | [9] 92 % of control

CCOc1ccccc1NCN1C(=O)c2ccccc2C1=O
inactive: [10] 95 % of control | [11] 91 % of control | [12] 95 % of control | [13] 88 % of control

Clc1c(Cl)c(Cl)c(CSCc2c(Cl)c(Cl)c(Cl)c(Cl)c2Cl)c(Cl)c1Cl
inactive: [4] 93 % of control | [7] 91 % of control | [5] 96 % of control | [8] 96 % of control | [6] 94 % of control | [9] 90 % of control

CCOC(=O)C(CC)C(=O)OCC
inactive: [4] 94 % of control | [5] 93 % of control | [6] 94 % of control

Cc1ccc(C)c(N=Nc2ccc(O)cc2)c1
inactive: [7] 104 % of control | [8] 100 % of control | [9] 105 % of control

O=C(O)c1ccccc1Oc1ccccc1C(=O)O
inactive: endpoint: mean survival time, dose: 100.0 mg/kg/injection, schedule: Q01DX009 (ip), vehicle: saline 101 % of control | endpoint: mean survival time, dose: 200.0 mg/kg/injection, schedule: Q01DX009 (ip), vehicle: saline 101 % of control | endpoint: mean survival time, dose: 400.0 mg/kg/injection, schedule: Q01DX009 (ip), vehicle: saline 94 % of control

N#CSCCSC#N
inactive: endpoint: mean survival time, dose: 2.5 mg/kg/injection, schedule: Q04DX003 (ip), vehicle: Klucel (hydroxypropylcellulose) (HPC) 102 % of control | endpoint: mean survival time, dose: 5.0 mg/kg/injection, schedule: Q04DX003 (ip), vehicle: Klucel (hydroxypropylcellulose) (HPC) 120 % of control | endpoint: mean survival time, dose: 10.0 mg/kg/injection, schedule: Q04DX003 (ip), vehicle: Klucel (hydroxypropylcellulose) (HPC) 105 % of control

O=[n+]1c2ccccc2n([O-])c2ccccc21.[Cl][Ni][Cl]
inactive: endpoint: median survival time, dose: 1.56 mg/kg/injection, schedule: Q01DX009 (ip), vehicle: saline with Tween-80 98 % of control | endpoint: median survival time, dose: 3.12 mg/kg/injection, schedule: Q01DX009 (ip), vehicle: saline with Tween-80 92 % of control | endpoint: median survival time, dose: 6.25 mg/kg/injection, schedule: Q01DX009 (ip), vehicle: saline with Tween-80 103 % of control | endpoint: median survival time, dose: 12.5 mg/kg/injection, schedule: Q01DX009 (ip), vehicle: saline with Tween-80 109 % of control | endpoint: median survival time, dose: 25.0 mg/kg/injection, schedule: Q01DX009 (ip), vehicle: saline with Tween-80 113 % of control

O=C1C(=O)c2ccccc2C(O)=C1CNCCO
inactive: endpoint: mean survival time, dose: 100.0 mg/kg/injection, schedule: Q01DX001 (ip), vehicle: saline with Tween-80 97 % of control | endpoint: mean survival time, dose: 200.0 mg/kg/injection, schedule: Q01DX001 (ip), vehicle: saline with Tween-80 94 % of control | endpoint: mean survival time, dose: 400.0 mg/kg/injection, schedule: Q01DX001 (ip), vehicle: saline with Tween-80 94 % of control

CCCCCC(=O)C(CCCC)C(=O)Nc1ccccc1 (centres undefined)
inactive: [7] 94 % of control | [8] 96 % of control | [9] 91 % of control

N#CC(C#N)CN(C1=NCCO1)c1cccc2c1CCCC2
inactive: [14] 94 % of control | [10] 94 % of control | [11] 98 % of control | [7] 89 % of control | [9] 89 % of control

Nc1c[nH]c(=O)[nH]c1=O
inactive: [11] 101 % of control | [12] 109 % of control | [13] 109 % of control

O=C1C(F)=C(F)C(=O)C(F)=C1F
inactive: endpoint: mean survival time, dose: 3.12 mg/kg/injection, schedule: Q01DX009 (ip), vehicle: Klucel (hydroxypropylcellulose) (HPC) 97 % of control | endpoint: mean survival time, dose: 6.25 mg/kg/injection, schedule: Q01DX009 (ip), vehicle: Klucel (hydroxypropylcellulose) (HPC) 98 % of control

NC(=S)N/N=C/c1ccc(Br)cn1
inactive: endpoint: mean survival time, dose: 12.5 mg/kg/injection, schedule: Q04DX002 (ip), vehicle: saline with Tween-80 110 % of control | [14] 110 % of control

CC(C)CCNC(=O)NS(=O)(=O)c1ccc(N)cc1
inactive: [7] 102 % of control | [8] 102 % of control | [9] 98 % of control

Cc1cc(OC(=S)N(C)C)c(S(=O)(=O)F)cc1Cl
inactive: [11] 95 % of control | [12] 98 % of control | [13] 95 % of control

CCOC(=O)C(CO)NC(=O)C[NH-].CCOC(=O)C(CO)NC(=O)C[NH-].[Cl][Pt+2][Cl] (centres undefined)
inactive: [1] 111 % of control | [2] 111 % of control | [3] 114 % of control
